{"source": "patent CN116444420A", "about": "“β-catenin/BCL9蛋白蛋白相互作用的小分子抑制剂及其应用” (Shanghai Pharmaceutical Industry Research Institute Co ltd, priority 2021, dated 2023)"}
{"target": "T1, hERG potassium channel [hERG钾离子通道] (Homo sapiens, UniProt Q12809)", "T1 construct": "expressed in transfected cells; host or cells: HEK293 (stably transfected)", "T1 sequence (Q12809 whole entry)": "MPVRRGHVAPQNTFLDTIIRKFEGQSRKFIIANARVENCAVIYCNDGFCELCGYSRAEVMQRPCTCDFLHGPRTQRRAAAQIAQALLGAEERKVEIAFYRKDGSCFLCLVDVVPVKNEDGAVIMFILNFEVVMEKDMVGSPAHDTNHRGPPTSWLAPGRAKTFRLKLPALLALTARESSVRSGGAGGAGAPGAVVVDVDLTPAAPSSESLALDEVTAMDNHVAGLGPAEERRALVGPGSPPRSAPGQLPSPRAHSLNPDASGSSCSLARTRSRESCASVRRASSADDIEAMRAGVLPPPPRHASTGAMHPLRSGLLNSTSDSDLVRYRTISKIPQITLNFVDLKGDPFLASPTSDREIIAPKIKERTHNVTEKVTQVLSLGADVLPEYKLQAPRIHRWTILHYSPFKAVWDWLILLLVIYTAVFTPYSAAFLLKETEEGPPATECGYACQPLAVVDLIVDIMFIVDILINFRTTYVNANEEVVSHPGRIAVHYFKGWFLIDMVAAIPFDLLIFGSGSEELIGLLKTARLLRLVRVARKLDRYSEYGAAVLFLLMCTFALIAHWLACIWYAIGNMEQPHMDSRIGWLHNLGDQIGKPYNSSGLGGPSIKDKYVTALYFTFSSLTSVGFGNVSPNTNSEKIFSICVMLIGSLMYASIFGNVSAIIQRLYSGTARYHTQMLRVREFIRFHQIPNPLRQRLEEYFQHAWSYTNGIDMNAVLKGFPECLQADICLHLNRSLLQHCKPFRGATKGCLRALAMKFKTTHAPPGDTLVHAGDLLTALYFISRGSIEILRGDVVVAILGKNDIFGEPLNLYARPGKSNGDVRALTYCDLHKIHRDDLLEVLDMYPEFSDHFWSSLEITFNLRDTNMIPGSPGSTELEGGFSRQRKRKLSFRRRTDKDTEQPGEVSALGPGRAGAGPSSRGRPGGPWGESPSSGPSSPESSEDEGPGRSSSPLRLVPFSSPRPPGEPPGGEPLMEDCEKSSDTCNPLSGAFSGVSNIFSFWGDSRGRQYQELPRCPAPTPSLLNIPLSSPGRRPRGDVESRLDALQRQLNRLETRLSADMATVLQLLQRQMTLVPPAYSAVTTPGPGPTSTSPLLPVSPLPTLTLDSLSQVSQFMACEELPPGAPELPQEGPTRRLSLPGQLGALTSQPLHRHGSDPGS", "assay": "hERG potassium channel, whole-cell patch clamp (Example 73)", "format": "cell-based", "settings": "whole-cell patch clamp, HEK293 cells stably transfected, room temperature; read-out: hERG IC50", "units": {"IC50": "µM"}}
{"compound": "CC(C)(Oc1cccc(C2CCCN(S(=O)(=O)c3cccc(-c4ccsc4)c3)C2)c1)C(=O)O", "note": "(centres unmarked) [化合物II-14, 2-甲基-2-(3-(1-((3-(噻吩-3-基)苯基)磺酰基)哌啶-3-基)苯氧基)丙酸]", "IC50": "> 10"}
{"compound": "CC(C)(Oc1cccc(C2CCCN(C(=O)c3cccc(-c4ccc(F)c(F)c4)c3)C2)c1)C(=O)O", "note": "(centres unmarked) [化合物II-2, 2-(3-(1-(3',4'-二氟-[1,1'-联苯基]-3-羰基)哌啶-3-基)苯氧基)-2-甲基丙酸]", "IC50": "> 10"}
{"target": "T2, β-catenin/BCL9 protein-protein [β-catenin/BCL9蛋白-蛋白] (Homo sapiens, UniProt P35222)", "T2 construct": "β-catenin(1-781)", "T2 sequence (P35222 1-781)": "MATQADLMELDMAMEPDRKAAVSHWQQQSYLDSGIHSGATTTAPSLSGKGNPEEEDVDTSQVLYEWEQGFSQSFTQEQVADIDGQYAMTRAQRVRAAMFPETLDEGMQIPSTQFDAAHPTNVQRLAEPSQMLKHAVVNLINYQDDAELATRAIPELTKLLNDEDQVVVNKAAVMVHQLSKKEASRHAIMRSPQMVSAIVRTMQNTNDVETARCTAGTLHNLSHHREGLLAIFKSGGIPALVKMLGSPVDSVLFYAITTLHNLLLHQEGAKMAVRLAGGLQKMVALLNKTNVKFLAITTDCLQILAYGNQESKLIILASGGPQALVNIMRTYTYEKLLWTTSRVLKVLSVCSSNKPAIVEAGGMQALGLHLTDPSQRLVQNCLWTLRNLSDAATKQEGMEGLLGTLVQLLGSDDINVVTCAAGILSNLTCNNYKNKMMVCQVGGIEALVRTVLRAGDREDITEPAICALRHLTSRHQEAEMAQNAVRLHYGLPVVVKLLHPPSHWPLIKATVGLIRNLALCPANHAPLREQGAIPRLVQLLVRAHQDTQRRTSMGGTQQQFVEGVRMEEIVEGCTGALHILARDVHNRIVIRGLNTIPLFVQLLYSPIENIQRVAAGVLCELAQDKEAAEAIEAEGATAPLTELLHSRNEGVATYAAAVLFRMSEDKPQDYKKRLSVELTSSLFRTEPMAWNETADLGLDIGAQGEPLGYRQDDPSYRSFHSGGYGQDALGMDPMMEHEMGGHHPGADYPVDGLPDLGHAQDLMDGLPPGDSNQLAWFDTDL", "assay": "β-catenin/BCL9 protein-protein affinity, fluorescence polarisation (Example 71)", "format": "binding", "settings": "better than compound c"}
{"compound": "CC(C)c1ccc(-c2cccc(S(=O)(=O)N3CCCC(c4cccc(OC(C)(C)C(=O)NS(=O)(=O)c5cccc(C(F)(F)F)c5)c4)C3)c2)cc1", "note": "(centres unmarked) [化合物II-40, 2-(3-(1-((4'-异丙基-[1,1'-联苯]-3-基)磺酰基)哌啶-3-基(苯氧基)-2-甲基-N-((3-(三氟甲基)苯基)磺酰)丙酰胺]", "affinity activity compared with reference compound c": "亲和活性更优"}
{"compound": "CC(C)c1ccc(-c2cccc(S(=O)(=O)N3CCCC(c4cccc(OC(C)(C)C(=O)NS(=O)(=O)c5cccc(C#N)c5)c4)C3)c2)cc1", "note": "(centres unmarked) [化合物II-46, N-((3-氰基苯基)磺酰基)-2-(3-(1-((4'-异丙基-[1,1'-联苯]-3-基)磺酰)哌啶-3-基苯氧基)-2-甲基丙酰胺]", "affinity activity compared with reference compound c": "亲和活性更优"}
{"compound": "CC(C)c1ccc(-c2cccc(S(=O)(=O)N3CCCC(c4cccc(OC(C)(C)C(=O)NS(=O)(=O)c5ccc(C#N)cc5)c4)C3)c2)cc1", "note": "(centres unmarked) [化合物II-37, N-((4-氰基苯基)磺酰基)-2-(3-(1-((4'-异丙基-[1,1'-联苯]-3-基)磺酰)哌啶-3-基(苯氧基)-2-甲基丙酰胺]", "affinity activity compared with reference compound c": "亲和活性更优"}
{"compound": "CC(C)(Oc1cccc(C2CCCN(S(=O)(=O)c3cccc(C4CCCCC4)c3)C2)c1)C(=O)O", "note": "(centres unmarked) [化合物II-16, 2-(3-(1-((3-环己基苯基)磺酰基)哌啶-3-基)苯氧基)-2-甲基丙酸]", "affinity activity compared with reference compound c": "亲和活性更优"}
{"compound": "CC(C)c1ccc(-c2cccc(S(=O)(=O)N3CCCC(c4cccc(OC(C)(C)C(=O)NS(=O)(=O)c5ccc(OC(F)(F)F)cc5)c4)C3)c2)cc1", "note": "(centres unmarked) [化合物II-48, 2-(3-(1-((4'-异丙基-[1,1'-联苯]-3-基)磺酰基)哌啶-3-基苯氧基)-2-甲基-N-((4-(三氟甲氧基)苯基)磺酰)丙酰胺]", "affinity activity compared with reference compound c": "亲和活性更优"}
{"compound": "CC(C)(Oc1cccc(C2CCCN(C(=O)c3cccc(-c4ccc(F)c(F)c4)c3)C2)c1)C(=O)N1CCOCC1", "note": "(centres unmarked) [化合物II-60, 2-(3-(1-(3',4'-二氟-[1,1'-联苯]-3-羰基)哌啶-3-基)苯氧基)-2-甲基-1-吗啉丙-1-酮]", "affinity activity compared with reference compound c": "亲和活性更优"}
{"compound": "CC(C)c1ccc(-c2cccc(S(=O)(=O)N3CCCC(c4cccc(OC(C)(C)C(=O)NS(=O)(=O)c5cccc([N+](=O)[O-])c5)c4)C3)c2)cc1", "note": "(centres unmarked) [化合物II-45, 2-(3-(1-((4'-异丙基-[1,1'-联苯]-3-基)磺酰基)哌啶-3-基苯氧基)-2-甲基-N-((3-硝基苯基)磺酰)丙酰胺]", "affinity activity compared with reference compound c": "亲和活性更优"}
{"compound": "CC(C)(Oc1cccc(C2CCCN(C(=O)c3cccc(-c4ccc(F)c(F)c4)c3)C2)c1)C(=O)N1CCC(=O)CC1", "note": "(centres unmarked) [化合物II-57, 1-(2-(3-(1-(3',4'-二氟-[1,1'-联苯]-3-羰基)哌啶-3-基)苯氧基)-2-甲基丙酰基)哌嗪-4-酮]", "affinity activity compared with reference compound c": "亲和活性更优"}
{"compound": "CC(C)c1ccc(-c2cccc(S(=O)(=O)N3CCCC(c4cccc(OC(C)(C)C(=O)NS(=O)(=O)c5ccc6ccccc6c5)c4)C3)c2)cc1", "note": "(centres unmarked) [化合物II-50, 2-(3-(1-((4'-异丙基-[1,1'-联苯]-3-基)磺酰基)哌啶-3-基(苯氧基)-2-甲基-N-(萘-2-基磺酰)丙酰胺]", "affinity activity compared with reference compound c": "亲和活性更优"}
{"compound": "CC(C)c1ccc(-c2cccc(S(=O)(=O)N3CCCC(c4cccc(OC(C)(C)C(=O)NS(=O)(=O)c5ccc(F)cc5)c4)C3)c2)cc1", "note": "(centres unmarked) [化合物II-43, N-((4-氟苯基)磺酰基)-2-(3-(1-((4'-异丙基-[1,1'-联苯]-3-基)磺酰)哌啶-3-基苯氧基)-2-甲基丙酰胺]", "affinity activity compared with reference compound c": "亲和活性更优"}
{"compound": "CC(C)(Oc1cccc(C2CCCN(C(=O)c3cccc(-c4ccccc4)c3)C2)c1)C(=O)O", "note": "(centres unmarked) [化合物II-9, 2-(3-(1-([1,1'-联苯基]-3-羰基)哌啶-3-基)苯氧基)-2-甲基丙酸]", "affinity activity compared with reference compound c": "亲和活性更优"}
{"compound": "CC(C)(Oc1cccc(C2CCCN(C(=O)c3cccc(-c4ccc(F)c(F)c4)c3)C2)c1)C(=O)N1C[C@@H]2C[C@H]1CN2.Cl", "note": "(stereo partly drawn) [化合物II-66, (1S,4S)-5-(2-(3-(1-(3',4'-二氟-[1,1'-联苯]-3-羰基)哌啶-3-基)苯氧基)-2-甲基丙酰基)-2,5-二氮杂二环[2.2.1]庚烷-2-氯化铵]", "affinity activity compared with reference compound c": "亲和活性更优"}
{"compound": "CC(C)(Oc1cccc(C2CCCN(C(=O)c3cccc(-c4ccc(F)c(F)c4)c3)C2)c1)C(=O)N1CCC(N)CC1.Cl", "note": "(centres unmarked) [化合物II-59, 1-(2-(3-(1-(3',4'-二氟-[1,1'-联苯]-3-羰基)哌啶-3-基)苯氧基)-2-甲基丙酰基)哌嗪-4-氯化铵]", "affinity activity compared with reference compound c": "亲和活性更优"}
{"compound": "CC(C)(Oc1cccc(C2CCCN(C(=O)c3cccc(-c4ccc(F)c(F)c4)c3)C2)c1)C(=O)NC1CCNCC1.Cl", "note": "(centres unmarked) [化合物II-61, 4-(2-(3-(1-(3',4'-二氟-[1,1'-联苯]-3-羰基)哌啶-3-基)苯氧基)-2-甲基丙酰胺)哌啶-1-氯化铵]", "affinity activity compared with reference compound c": "亲和活性更优"}
{"compound": "CC(C)(Oc1cccc(C2CCCN(S(=O)(=O)c3cccc(-c4cccs4)c3)C2)c1)C(=O)O", "note": "(centres unmarked) [化合物II-17, 2-甲基-2-(3-(1-((3-(噻吩-2-基)苯基)磺酰基)哌啶-3-基)苯氧基)丙酸]", "affinity activity compared with reference compound c": "亲和活性更优"}
{"compound": "CC(C)(Oc1cccc(C2CCCN(C(=O)c3cccc(-c4ccc(F)c(F)c4)c3)C2)c1)C(=O)NS(=O)(=O)c1ccccc1", "note": "(centres unmarked) [化合物II-29, 2-(3-(1-(3',4'-二氟-[1,1'-联苯基]-3-羰基)哌啶-3-基)苯氧基)-2-甲基-N-(苯磺酰基)丙酰胺]", "affinity activity compared with reference compound c": "亲和活性更优"}
{"compound": "CC(C)c1ccc(-c2cccc(S(=O)(=O)N3CCCC(c4cccc(OC(C)(C)C(=O)NS(=O)(=O)c5cccc(F)c5)c4)C3)c2)cc1", "note": "(centres unmarked) [化合物II-44, N-((3-氟苯基)磺酰基)-2-(3-(1-((4'-异丙基-[1,1'-联苯]-3-基)磺酰)哌啶-3-基苯氧基)-2-甲基丙酰胺]", "affinity activity compared with reference compound c": "亲和活性更优"}
{"compound": "CC(C)c1ccc(-c2cccc(S(=O)(=O)N3CCCC(c4cccc(OC(C)(C)C(=O)NS(=O)(=O)c5ccc([N+](=O)[O-])cc5)c4)C3)c2)cc1", "note": "(centres unmarked) [化合物II-42, 2-(3-(1-((4'-异丙基-[1,1'-联苯]-3-基)磺酰基)哌啶-3-基苯氧基)-2-甲基-N-((4-硝基苯基)磺酰)丙酰胺]", "affinity activity compared with reference compound c": "亲和活性更优"}
{"compound": "CC(C)(Oc1cccc(C2CCCN(C(=O)c3cccc(-c4ccc(F)c(F)c4)c3)C2)c1)C(=O)N1CCC(O)CC1", "note": "(centres unmarked) [化合物II-63, 2-(3-(1-(3',4'-二氟-[1,1'-联苯]-3-羰基)哌啶-3-基)苯氧基)-1-(4-羟基哌啶-1-基)-2-甲基丙-1-酮]", "affinity activity compared with reference compound c": "亲和活性更优"}
{"compound": "CC(C)(Oc1cccc(C2CCCN(C(=O)c3cccc(-c4ccc(F)c(F)c4)c3)C2)c1)C(=O)N1C[C@H]2C[C@@H]1CN2.Cl", "note": "(stereo partly drawn) [化合物II-65, (1R,4R)-5-(2-(3-(3-(3',4'-二氟-[1,1'-联苯]-3-羰基)哌啶-3-基)苯氧基)-2-甲基丙酰基)-2,5-二氮杂二环[2.2.1]庚-2-氯化铵]", "affinity activity compared with reference compound c": "亲和活性更优"}
{"compound": "CC(=O)Nc1ccc(S(=O)(=O)NC(=O)C(C)(C)Oc2cccc(C3CCCN(S(=O)(=O)c4cccc(-c5ccc(C(C)C)cc5)c4)C3)c2)cc1", "note": "(centres unmarked) [化合物II-49, N-((4-乙酰氨基苯基)磺酰基)-2-(3-(1-((4'-异丙基-[1,1'-联苯]-3-基)磺酰)哌啶-3-基(苯氧基)-2-甲基丙酰胺]", "affinity activity compared with reference compound c": "亲和活性更优"}
{"compound": "CC(C)(Oc1cccc(C2CCCN(C(=O)c3cccc(-c4ccc(F)c(F)c4)c3)C2)c1)C(=O)NS(=O)(=O)c1ccc(C(F)(F)F)cc1", "note": "(centres unmarked) [化合物II-55, 2-(3-(1-(3',4'-二氟-[1,1'-联苯]-3-羰基)哌啶-3-基)苯氧基)-2-甲基-N-((4-(三氟甲基)苯基)磺酰基)丙酰胺]", "affinity activity compared with reference compound c": "亲和活性更优"}
{"compound": "CC(C)(Oc1cccc(C2CCCN(C(=O)c3cccc(-c4ccc(F)c(F)c4)c3)C2)c1)C(=O)N1CCNCC1.Cl", "note": "(centres unmarked) [化合物II-58, 4-(2-(3-(1-(3',4'-二氟-[1,1'-联苯]-3-羰基)哌啶-3-基)苯氧基)-2-甲基丙酰基)哌嗪-1-氯化铵]", "affinity activity compared with reference compound c": "亲和活性更优"}
{"compound": "CC(C)c1ccc(-c2cccc(S(=O)(=O)N3CCCC(c4cccc(OC(C)(C)C(=O)NS(=O)(=O)c5ccc(C(F)(F)F)cc5Cl)c4)C3)c2)cc1", "note": "(centres unmarked) [化合物II-52, N-((2-氯-4-(三氟甲基)苯基)磺酰基)-2-(3-(1-((4'-异丙基-[1,1'-联苯]-3-基)磺酰)哌啶-3-基苯氧基)-2-甲基丙酰胺]", "affinity activity compared with reference compound c": "亲和活性更优"}
{"compound": "CC(C)(Oc1cccc(C2CCCN(C(=O)c3cccc(-c4ccc(F)c(F)c4)c3)C2)c1)C(=O)NS(=O)(=O)c1ccc2ccccc2c1", "note": "(centres unmarked) [化合物II-56, 2-(3-(1-(3',4'-二氟-[1,1'-联苯]-3-羰基)哌啶-3-基)苯氧基)-2-甲基-N-(萘-2-基磺酰基)丙酰胺]", "affinity activity compared with reference compound c": "亲和活性更优"}
{"compound": "COc1ccc(S(=O)(=O)NC(=O)C(C)(C)Oc2cccc(C3CCCN(C(=O)c4cccc(-c5ccc(F)c(F)c5)c4)C3)c2)cc1", "note": "(centres unmarked) [化合物II-68, 2-(3-(1-(3',4'-二氟-[1,1'-联苯]-3-羰基)哌啶-3-基)苯氧基)-N-((4-甲氧基苯基)磺酰基)-2-甲基丙酰胺]", "affinity activity compared with reference compound c": "亲和活性更优"}
{"compound": "COc1cccc(S(=O)(=O)NC(=O)C(C)(C)Oc2cccc(C3CCCN(S(=O)(=O)c4cccc(-c5ccc(C(C)C)cc5)c4)C3)c2)c1", "note": "(centres unmarked) [化合物II-51, 2-(3-(1-((4'-异丙基-[1,1'-联苯]-3-基)磺酰基)哌啶-3-基(苯氧基)-N-((3-甲氧基苯基)磺酰)-2-甲基丙酰胺]", "affinity activity compared with reference compound c": "亲和活性更优"}
